pIC50: −log10 of the molar value. Read-outs that look alike come from different tables or passages of the source.
Experiments:
[1] = Acute toxicity on mice (Litchfield and Wilcoxon); settings: mouse, in vivo, po
Procedure: The test was carried out according to the method of Litchfield and Wilcoxon [Litchfield, J. T. and Wilcoxon, F. W.: J. Pharmacol. Exp. Ther., 96, 99 (1949)] by using white mice belonging to the CFLP strain and weighing 10 to 22 g, 10 animals per dose. The test compounds were administered orally in a volume of 20 cm^3 /kg.

[2] = Acute toxicity on mice (Litchfield and Wilcoxon); settings: mouse, in vivo, ip
[3] = test system: mice; experiment: Effect on the spontaneous motor activity (Borsy), sedative effect; assay type: in vivo, mouse; settings: for ED50: Mus musculus, po, 0.5 h, read-out: ID50, spontaneous motor activity
Procedure: 2.1. Effect on the spontaneous motor activity
The test was carried out according to the method of Borsy et al. Groups consisting of 3 mice each were treated orally with different doses of the compounds to be tested. Then the test animals were placed into a 10-channel Dews system equipment. In this equipment the number of interruptions of infrared beam within 30 minutes was counted. […] Int. Pharmacodyn. 124, 1 (1960)].

[4] = test system: Male Wistar rats; experiment: Vogel test (drinking conflict test), anxiolytic effect; assay type: in vivo, rat (Wistar); settings: ip, 0.5 h; rat, intraperitoneally, half an hour before testing; read-out: MED (minimum effective dose), Vogel test
Procedure: 1.1. Vogel test (drinking conflict test)
The anxiolytic effect was tested by using the method of Vogel et al. Male Wistar rats of 160 to 180 g body weight were kept free of food and drinking water for 24 and 48 hours, respectively. Test and carrier substances were administered intraperitoneally half an hour before testing. Animals within the experimental chamber were provided with drinking water through an inserted tube. After the animals' each twenty lapping for water the device emitted a 2 mA intensity electric shock through the drinking tube. During 5 minutes the shocks tolerated by the animals in order to quench their thirst were counted. The effect of treatment was expressed as the % increase of the tolerated shocks. The minimum effective dose (MED) was determined for each test compound [Volge, J. R., Beer, B., Clody, D. E.: Psychopharmacologia (Berl.) 21, 1 (1971)].

[5] = test system: Male Wistar rats; experiment: Conditioned avoidance response inhibition, antipsychotic effect; assay type: in vivo, rat (Wistar); settings: rat; for Inhibition of the conditioned reflex (%): 30 mg/kg p.o., ++ = p < 0.05
Procedure: Conditioned avoidance response inhibition
The antipsychotic (neuroleptic) effect was measured by the inhibition of the learned conditioned avoidance reflex. The male Wistar rats, used for the study, were of 120-150 g body weight at the commencement of learning. A shuttle box was used as experimental device; it consists of two parts, 24×24.5×23 cm each, separated by a wall with a 6×9 cm gate. In response to a sutiable warning stimulus, in order to avoid the punishing (unconditioned) stimulus, animals within the box passed through the gate from one part to the other. The warning, i.e. conditioned stimulus (CS), a white light (1 Hz) blinking for 15 seconds, was applied at the place of the actual animal existence. The unconditioned stimulus (US), in form of 0.6 mA intensity electric shock, was randomly applied to the paw during the last 5 seconds of the conditioned stimulus. The animal's movement during the CS and US from one part of the box to the other, was defined as avoidance and escape responses, respectively. Both responses ceased the actual stimulus and stopped the trial. The time elapsed until the next trial (intertrial interval, ITI) was 15 seconds. While one experiment was carried out daily, an experiment consisted of 80 trials. Learning efficiency was expressed as percentage of the successful to the total avoidances. Effect of the neuroleptic drugs was examined in animals with stabilized conditioned reflexes and with at least 75% learning efficiency. Dosing was carried out once a week, one hour before the measurement in the shuttle box. To calculate the neuroleptic effect (50% inhibiting dose, ID50) , results obtained after the treatment were compared to those obtained on the previous day (controls).

[6] = molecular target: T1, H^+ /K^+ -ATP-ase (Sus scrofa, UniProt P19156); experiment: H+/K+-ATP-ase inhibition on partially purified pig's microsome specimen; assay type: biochemical
T1 construct: on partially purified pig's microsome specimen; from tissue; host or cells: pig stomach, partially purified microsomes
T1 sequence (P19156 2-1034 limits assumed): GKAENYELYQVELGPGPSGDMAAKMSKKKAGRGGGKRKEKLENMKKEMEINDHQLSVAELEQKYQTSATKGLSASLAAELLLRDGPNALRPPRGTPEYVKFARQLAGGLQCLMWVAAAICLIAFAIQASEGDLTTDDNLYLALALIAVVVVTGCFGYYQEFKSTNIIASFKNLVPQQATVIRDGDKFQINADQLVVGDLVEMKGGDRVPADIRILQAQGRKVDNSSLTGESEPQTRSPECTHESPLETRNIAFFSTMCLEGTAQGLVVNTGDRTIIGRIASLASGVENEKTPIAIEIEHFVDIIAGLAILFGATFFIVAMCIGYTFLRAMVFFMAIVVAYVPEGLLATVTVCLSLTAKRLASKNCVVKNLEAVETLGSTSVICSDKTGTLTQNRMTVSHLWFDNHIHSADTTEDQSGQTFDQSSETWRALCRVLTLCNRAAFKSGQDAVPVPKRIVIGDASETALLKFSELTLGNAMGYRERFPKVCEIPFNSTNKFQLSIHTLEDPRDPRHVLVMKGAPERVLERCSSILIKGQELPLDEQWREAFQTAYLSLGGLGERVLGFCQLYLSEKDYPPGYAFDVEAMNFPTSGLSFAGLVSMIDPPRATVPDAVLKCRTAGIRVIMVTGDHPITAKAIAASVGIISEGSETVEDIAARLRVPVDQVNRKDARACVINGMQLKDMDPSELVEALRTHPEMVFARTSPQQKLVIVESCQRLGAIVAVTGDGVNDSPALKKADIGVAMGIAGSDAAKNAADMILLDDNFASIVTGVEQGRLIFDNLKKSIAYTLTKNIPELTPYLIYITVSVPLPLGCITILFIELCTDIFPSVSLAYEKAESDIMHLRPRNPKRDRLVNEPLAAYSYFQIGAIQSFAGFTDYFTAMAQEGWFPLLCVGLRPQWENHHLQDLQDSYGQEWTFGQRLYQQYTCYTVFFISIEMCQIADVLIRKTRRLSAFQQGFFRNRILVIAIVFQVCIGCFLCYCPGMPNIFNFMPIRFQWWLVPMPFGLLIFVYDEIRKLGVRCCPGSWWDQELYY
T1 sequence (P18434 whole entry partner): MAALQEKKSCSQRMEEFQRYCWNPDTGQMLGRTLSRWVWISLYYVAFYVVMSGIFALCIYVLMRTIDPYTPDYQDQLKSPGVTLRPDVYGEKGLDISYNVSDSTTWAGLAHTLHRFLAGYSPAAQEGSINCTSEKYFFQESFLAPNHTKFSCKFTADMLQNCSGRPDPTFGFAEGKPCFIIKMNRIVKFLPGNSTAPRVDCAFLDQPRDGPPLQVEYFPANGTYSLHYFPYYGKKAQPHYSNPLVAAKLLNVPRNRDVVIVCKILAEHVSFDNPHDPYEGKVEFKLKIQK
Procedure: 1. H^+ /K^+ -ATP-ase inhibition on pig's stomach
The test was carried out according to the method of Rabon and Sachs [E. C. Rabon et al.: Preparation of gastric H^+ K^+ -ATP-ase, Methods in Enzymology, 157, 649-651 (1988)]. The activity of the prepared enzyme was measured both in the presence as in the absence of K^+ ions. The difference in the libaration of phosphorus representing the activity of the enzyme was measured.

[7] = test system: gastric-acid secretion; experiment: Gastric-acid-secretion test (Shay); assay type: in vivo, rat; settings: po, read-out: Acid-secretion inhibition, ED50
Procedure: 2. […] The liberated gastric-acid content was determined by titration 4 hours after the ligature of the duodenum.

[8] = test system: erosion of the stomach wall; experiment: Cytoprotective effect, ethanol erosion (Robert); assay type: in vivo; settings: rat; for ED50: po; for Ratio of acid-secretion inhibition and erosion inhibition: ratio of ED50 values
Procedure: 3. The cytoprotective effect was determined according to the method of Robert [Robert, A.: Cytoprotection by prostaglandins. […] Rats weighing 200 to 250 g were used as test animals. 1 cm^3 of abs. ethanol was introduced to the stomach to produce an erosion of the stomach wall. The length and frequency of the lesions (erosion index and frequency) were measured and the percentage inhibition of lesion formation compared with vehicle-treated animals was calculated.

[9] = rat, p.o., 4 hours after ligature

Row | Molecule | ED50 ([3]; mice, orally, 30 minutes) [mg/kg] | minimal effective dose [4] [mg/kg] | Inhibition of the conditioned reflex (%) [5] [%] | LD50 at 336 h [1] [mg/kg] | pIC50 [6] | LD50 at 336 h [2] [mg/kg] | ED50 [7, 9] [mg/kg] | ED50 ([8]; 1 cm^3 abs. ethanol) [mg/kg] | Ratio of acid-secretion inhibition and erosion inhibition ([8]; p.o.) | further results
1 | CC(C)CCC(/C=C/c1ccc(Cl)cc1)=N\OCC(O)CNC1CCCCC1 (racemic) [Example 36, (R,S)-1-(4-Chlorophenyl)-6-methyl-3-(E)-[3-(cyclohexylamino)-2-hydroxypropoxyimino]-1-(E)-heptene] |  |  |  |  |  |  |  |  |  | LD50 at 336 h ([1]; mice, 14 days observation): > 1000 mg/kg; LD50 at 336 h ([2]; mice, 14 days observation): 30 to 100 mg/kg
2 | CNC1=Nc2ccc(Cl)cc2C(c2ccccc2)=[N+]([O-])C1 [Chlorodiazepoxide, reference compound] | 56 |  |  |  |  |  |  |  |  | 
3 | CC(C)CCC(/C=C/c1ccc(Cl)cc1)=N\OCCCN(C)C [Example 13, 1-(4-Chlorophenyl)-6-methyl-3-(E)-[3-(dimethylamino)-propoxyimino]-1-(E)-heptene] | > 100 | > 30 | 12 |  |  |  |  |  |  | 
4 | CC(C)CCC(/C=C/c1ccc(Br)cc1)=N\OCCCN1CCCCC1 [Example 42, 1-(4-Bromophenyl)-6-methyl-3-(E)-[(3-N-piperidinyl)-propoxyimino]-1-(E)-heptene] |  |  |  | > 1000 | 5.15 | 100 to 300 |  |  |  | 
5 | CC(C)CCC(/C=C/c1ccc(F)cc1)=N\OCCCN1CCCCC1 [Example 38, 1-(4-Fluorophenyl)-6-methyl-3-(E)-[3-(N-piperidinyl)-propoximino]-1-(E)-heptene] |  |  |  | 500 to 1000 | 4.77 | 100 to 300 | 37.7 | 1.3 | 29.0 | 
6 | CN1C(=O)CN=C(c2ccccc2)c2cc(Cl)ccc21 [Diazepam, reference compound] |  |  |  |  |  |  |  |  |  | ED50 [3]: 23 mg/kg
7 | CC(C)CCC(/C=C/c1ccc(Cl)cc1)=N\OCC(O)CN1CCCCC1 (racemic) [Example 37, (R,S)-1-(4-Chlorophenyl)-6-methyl-3-(E)-[2-hydroxy-3-(1-piperidinyl)-propoxyimino]-1-(E)-heptene] |  |  |  | > 1000 | 4.68 | 100 to 300 | 30 to 100 | 3 to 10 | > 10 | 
8 | CC(C)CCC(/C=C/c1ccc(Cl)cc1)=N/OCCC1CCCN1C (centres unmarked) [Example 40, 1-(4-Chlorophenyl)-6-methyl-3-(Z)-[2-(2-N-methylpyrrolidinyl)-ethoxyimino]-1-(E)-heptene] |  |  |  | 1000 | 5.00 | 100 to 300 | < 100 | 0.9 | < 100 | 
9 | CCCC(/C=C/c1ccccc1)=N\OCCN(CC)CC [Example 1, 1-Phenyl-3-(E)-[2-(diethylamino)-ethoxyimino]-1-(E)-hexene] | > 100 | 30 | 10 |  |  |  |  |  |  | 
10 | CC(C)CC(/C=C/c1ccccc1)=N\OCCN(C)C [Example 17, 1-Phenyl-5-methyl-3-(E)-[2-(dimethylamino)-ethoxyimino]-1-(E)-hexene] | > 100 | 30 | 40 | > 1000 | < 4.52 | 100 to 300 | 166 | 2.7 | 61.4 | antipsychotic / conditioned-reflex-inhibiting activity (in words) ([5]; in vivo): slight conditioned-reflex-inhibiting activity
11 | CN1CCN(CC(=O)N2c3ccccc3C(=O)Nc3cccnc32)CC1 [Pirenzepine, reference compound] |  |  |  |  |  |  | 7.9 | 18.6 | 0.4 | 
12 | CC(C)CCC(/C=C/c1ccc(Cl)cc1)=N\OCCCN1CCCCCC1 [Example 35, 1-(Chlorophenyl)-6-methyl-3-(E)-[3-(hexahydro-1-H-azepinyl)-propoxyimino]-1-(E)-heptene] |  |  |  | > 1000 |  | 30 to 100 |  |  |  | 
13 | CC(C)CCC(/C=C/c1ccccc1)=N\OCCCN(C)C [Example 5, 1-Phenyl-6-methyl-3-(E)-[3-(dimethylamino)-propoxyimino]-1-(E)-heptene] | > 100 | > 30 | 16 |  |  |  |  |  |  | 
14 | CN/C(=N/CCSCc1nc[nH]c1C)NC#N [Cimetidine, reference compound] |  |  |  |  |  |  |  | 100 to 200 | 0.3-0.6 | ED50 ([7]; Rattus norvegicus, 4 h): 59.1 mg/kg
15 | CCC(/C=C/c1ccc(Cl)cc1)=N\OCC(C)CN(C)C (racemic) [Example 19, (R,S)-1-(4-Chlorophenyl)-3-(E)-[3-(dimethylamino)-2-methylpropoxyimino]-1-(E)-pentene] | > 100 | 10 | 19 |  |  |  |  |  |  | 
16 | CC(C)CCC(/C=C/c1ccc(Cl)cc1)=N\OCCN(C)C [Example 15] | > 100 | 3 | 11 |  |  |  |  |  |  | 
17 | CCCCCCC(/C=C/c1ccc(Cl)cc1)=N\OCCN1CCCCC1 [Example 3, 1-(4-Chlorophenyl)-3-(E)-[2-(N-piperidinyl)-ethoxyimino]-1-(E)-nonene] |  |  |  | 500 to 1000 | 5.00 | 100 to 300 | 50 to 150 | 2.5 | > 20 | 
18 | CCC(/C=C/c1ccccc1)=N\OCCN(C)C [Example 14, 1-Phenyl-3-(E)-[2-(dimethylamino)-ethoxyimino]-1-(E)-pentene] | > 100 | 10 | 18 |  |  |  |  |  |  | 
19 | COc1ccc2[nH]c([S+]([O-])Cc3ncc(C)c(OC)c3C)nc2c1 (centres unmarked) [Omeprazole, reference compound] |  |  |  |  |  |  | 3.9 | 4.5 | 0.9 | 
20 | CC(C)CCC(/C=C/c1ccc(Cl)cc1)=N\OCCCN1CCCC1 [Example 41, 1-(4-Chlorophenyl)-6-methyl-3-(E)-[3-(N-pyrrolidinyl)-propoxyimino]-1-(E)-heptene] |  |  |  | > 1000 | 5.05 | 30 to 100 | < 100 | 2 | < 50 | 
21 | CCC(/C=C/c1ccccc1)=N\OCC(C)CN(C)C (racemic) [Example 18, (R,S)-1-Phenyl-3-(E)-[3-(dimethylamino)-2-methylpropoxyimino]-1-(E)-pentene] |  | 1 | 12 |  |  |  |  |  |  | inhibition of spontaneous motor activity at 100 mg/kg ([3]; mice, orally, 100 mg/kg): 54%
22 | CCC(/C=C/c1ccc(Cl)cc1)=N\OCCN(C)C [Example 7, 1-(4-Chlorophenyl)-3-(E)-[2-(dimethylamino)-ethoxyimino]-1-(E)-pentene] | > 100 | 3 | 22 |  |  |  |  |  |  | 
23 | Sucralfate [reference compound] |  |  |  |  |  |  |  |  |  | Ethanol erosion ED50 ([8]; p.o., 1 cm^3 abs. ethanol): 69.0

Reference: US5486528A, “Basic ethers and process for the preparation thereof” (Egis Gyogyszergyar Rt., priority 1993, dated 1996)
